The record followed here is the METLIN SMRT retention time set (Domingo-Almenara et al. 2019).

A short description of this series: gradient 5% acetonitrile 3 min, to 50% in 2 min, to 85% in 15 min, held 3 min, 100 µL/min. Particulars: column: Zorbax Extend-C18 2.1 x 50 mm; eluents: water / acetonitrile, 0.1% formic acid. The method in brief: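 Each retention time is based on an adduct peak selected computationally and verified by manual inspection. Measurements used HPLC–quadrupole time-of-flight mass spectrometry in positive and negative ionization mode on mixtures of ~100 pure standards. Chromatography ran on a Zorbax Extend-C18 column (2.1 × 50 mm, 1.8 μm) at 100 μL/min with water and acetonitrile, each containing 0.1% formic acid, and dead and dwell volumes of 40 μL and 900 μL.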
Turning to `Fc1cccc(CSc2ccc(-c3ccc4c(c3)OCO4)nn2)c1`, the RP-LC retention time was 1020 s. The compound `COc1cccc(C(=O)NC(NC(=O)c2cccc(OC)c2)c2ccc3c(c2)OCO3)c1` returned an RP-LC retention time of 758 s. To `CC1(C)COc2ccc(NC(=O)c3cccc(Br)c3)cc2NC1=O` belongs 892 s; to `Cc1ccc(-n2c(N3CCCC(C(=O)NCCC(C)C)C3)nc3ccsc3c2=O)cc1` (centres undefined), 955 s. Under `N#Cc1ccc(CN2CCCC2=O)cc1` stands 658 s. To `CCC(=O)N1CCCCCCNC(=O)[C@@H]2CCC[C@@H]21` belongs 657 s. The compound `Cc1ccc(N2N=NC3C(=O)N(c4ccccc4)C(=O)C32)cc1C` (centres undefined) yielded an RP-LC retention time of 1010 s. To `O=C(Cn1cccc(-c2nc(-c3ccc(Br)cc3)no2)c1=O)NCc1ccc(F)cc1` belongs 952 s. Consider `CN(C)CCN(C(=O)CCc1ccccc1)c1nc2ccc(F)cc2s1`, for which the RP-LC retention time was 773 s. To `CCC(C)NC(=O)CCNc1c(-c2ccc(C)cc2)nc2cnccn12` (centres undefined) belongs 672 s. To `CCCN1CCN(C(=O)C(CC)n2c3ccccc3c3cnn(C)c(=O)c32)CC1` (centres undefined) belongs 618 s; to `O=C(CCC1CCCN(c2cc(NC3CC3)ncn2)C1)NCc1ccc(F)cc1` (centres undefined), 676 s. Compound `COc1ccc(NC(=O)c2c(O)c3cccnc3n(-c3ccc(OC)cc3)c2=O)cc1` came in with an RP-LC retention time of 800 s. In turn, `Cc1csc(-c2cc(S(=O)(=O)N3c4ccccc4CC3C)c(C)s2)n1` (centres undefined) showed an RP-LC retention time of 1220 s.

For `COc1cc(-c2nc3nc(C)cc(C)n3c2Nc2ccccc2)ccc1O`, the RP-LC retention time came out at 647 s.

As to `Fc1cccc(-c2nnc(-c3ccccc3Cl)o2)c1`, the RP-LC retention time is 1060 s. To `O=C(Nc1cnc(-c2ccc(F)cc2)nc1)C1CC1` belongs 829 s. `Cc1nc(-c2cccc(NC(=O)c3ccc(-n4ccnc4C)nn3)c2)cs1` came in with an RP-LC retention time of 581 s. Compound `CC(C)NC(=O)CC1CCN(C(=O)c2cc3cc(Cl)ccc3[nH]2)CC1` displayed an RP-LC retention time of 773 s. Compound `COCCNC(=O)c1c(C)oc2ccn(Cc3ccc(F)cc3)c(=O)c12` had an RP-LC retention time of 837 s. Under `CCOc1ccccc1NC(=O)N1CCC(c2cnn(-c3ccccc3)c2)CC1` stands 1040 s; under `COc1ccc(C(=O)N2C[C@@H]3C[C@H]2C[C@@H]3NC(=O)c2cccnc2)cc1F`, 618 s.

Compound `COCCN1C(=O)CCc2cc(NC(=O)c3ccccc3Br)ccc21` came in with an RP-LC retention time of 746 s. Under `Cc1ccc(CCNC(=O)c2cc3sccc3n2Cc2ccc(F)cc2)cc1` stands 702 s; under `Cc1cccc(C)c1Nc1c(-c2cc(Br)ccc2O)nc2ncccn12`, 1090 s; under `CCC(=O)N1CCCC(C(=O)N2CCOCC2)C1` (centres undefined), 564 s. In the case of `Fc1ccc(CN2CCC(Cc3nc(-c4ccncc4)n[nH]3)C2)c(F)c1` (centres undefined), the RP-LC retention time is 552 s. Compound `COc1ccccc1NC(=O)C1CC(=O)N(c2ccc3c(c2)CCN3C(=O)C2CC2)C1` (centres undefined) came in with an RP-LC retention time of 778 s.

`COc1ccc(N2CCN(CCCNC(=O)C3CCCN(c4nccc(C)n4)C3)CC2)cc1` (centres undefined) came in with an RP-LC retention time of 603 s. Under `O=c1n(Cc2cccc(Br)c2)nc2ccc(S(=O)(=O)N3CCCC3)cn12` stands 928 s.

Turning to `CCOCCOC1CCN(S(=O)(=O)c2ccc(OC)cc2)CC1`, the RP-LC retention time is 831 s. Under `O=C(c1cccc(OCC2CCCN(C(=O)C3CCCO3)C2)c1)N1CCCCC1` (centres undefined) stands 750 s; under `Cc1ccc(C)c(CNC(=O)C2CCCN(c3cnn(C)c(=O)c3)C2)c1` (centres undefined), 723 s.

`Cc1ccc(-c2nnc(CC(=O)NC(C)CCc3ccccc3)o2)cc1` (centres undefined) came in with an RP-LC retention time of 840 s. As to `CCn1cc(-c2nc(CC(=O)Nc3ccc(F)cc3)cs2)c2cccnc21`, the RP-LC retention time is 894 s. Under `CCOc1ccc(-n2nnnc2CNS(=O)(=O)c2cccc(C(F)(F)F)c2)cc1` stands 892 s; under `COc1ccc(-c2ncc3c(=O)n(Cc4ccc(Br)cc4F)c(=O)n(C)c3n2)cc1`, 1290 s; under `Cc1cc(C)cc(N2CCC(NC(=O)Nc3ccc(C)cc3C)C2=O)c1` (centres undefined), 938 s.

`COc1ccc(-c2noc(-c3cccnc3N3CCN(c4ccccc4OC)CC3)n2)cc1` returned an RP-LC retention time of 1150 s. Compound `Cc1ccc(-c2cn3c(CC(=O)NCc4ccco4)csc3n2)cc1C` came in with an RP-LC retention time of 750 s. Under `Cc1[nH]c2ccccc2c1C(=O)C(=O)N1CC2CC(C1)c1cccc(=O)n1C2` (centres undefined) stands 612 s; under `CCOc1cccc(CN2CC[C@@](C)(O)[C@H](N3CCCC3)C2)c1`, 562 s. To `COc1ccc(-c2nc(NC(=O)c3ccc(-c4nc5ccccc5s4)s3)sc2C)cc1` belongs 1400 s; to `O=C1CC(c2nc(-c3ccc4c(c3)OCO4)no2)CN1c1ccc2c(c1)OCCO2` (centres undefined), 895 s; to `Cc1nc2ccc(C(=O)NC3CCN(C)CC3)cc2nc1C`, 566 s. Under `Cc1ccc(S(=O)(=O)N2CCC(CCNC(=O)NC3CCCC3)CC2)cc1` stands 894 s; under `CCc1nc(-c2csc(S(=O)(=O)N3CCC(C(=O)Nc4ccccc4)CC3)c2)no1`, 952 s; under `CC(=O)Nc1cccc2c(C(=O)NC(C)c3ccc(C)cc3C)ccnc12` (centres undefined), 896 s.

The compound `CCCn1c(=O)sc2cc(S(=O)(=O)N3CCC(C(=O)N4c5ccccc5CC4C)CC3)ccc21` (centres undefined) gave an RP-LC retention time of 1080 s. To `O=C1NCCCCCN(C(=O)c2cccs2)[C@H]2CCC[C@@H]12` belongs 698 s; to `CN(Cc1nc(-c2ccc(N3CCSCC3)nc2)no1)C1CCCCC1`, 694 s. Turning to `Cc1cc(-c2c(C)sc(C)c2S(=O)(=O)Nc2ccc(C)c(F)c2)n[nH]1`, the RP-LC retention time came to 1080 s.

`Fc1cccc(-c2nc(-c3cn(Cc4ccccc4)nn3)no2)c1` came in with an RP-LC retention time of 1020 s. To `CCCn1cc(C(=O)NC(C)c2cccnc2)c2cccnc21` (centres undefined) belongs 597 s; to `COCCC1CCN(C(=O)COc2cccc(Cl)c2)CC1`, 855 s. Consider `COc1ccccc1CC(=O)N1C[C@@H]2C[C@H]1C[C@@H]2NC(=O)c1ccccc1`, for which the RP-LC retention time stood at 729 s. Compound `CCOC(=O)N1CCN(C(=O)CSc2nnc(C3COc4ccccc4O3)o2)CC1` (centres undefined) returned an RP-LC retention time of 762 s. `COc1cc(CCc2cc(NC(=O)c3ccc(N4C[C@@H](C)N[C@@H](C)C4)cc3)n[nH]2)cc(OC)c1` had an RP-LC retention time of 687 s. Under `Cc1nsc2ncc(C(=O)N3CCOCC3)c(N3CCC(C(=O)Nc4ccccc4Br)CC3)c12` stands 813 s. Under `Cc1onc(-c2ccccc2Cl)c1C(=O)Nc1nc(-c2ccc([N+](=O)[O-])cc2)cs1` stands 1100 s; under `CCc1cccc(C)c1Nc1c(-c2ccccc2)nc2cnccn12`, 947 s; under `CSc1ccc(CNC(=O)C2CCCN(c3ncnc4nn(-c5ccc(C)cc5)cc34)C2)cc1` (centres undefined), 750 s. Compound `C[C@H]1CN(C(=O)c2c[nH]c3ccccc23)C[C@@H]1c1nc(-c2cccnc2)no1` came in with an RP-LC retention time of 711 s. In turn, `COc1ccc(NC(=O)c2c(O)c3sccc3n(C)c2=O)cc1Cl` gave an RP-LC retention time of 1170 s. Under `O=C(O)c1nnn(-c2ccc3c(c2)OCCO3)c1-c1ccncc1` stands 593 s; under `CC(=O)Nc1ccc(S(=O)(=O)NC2(c3nc(C4CC4)no3)CCCCC2)cc1Cl`, 813 s. Take `CCOc1ccc(CN2CCc3nc(N4CCOCC4)ncc3C2)cc1OCC`: the RP-LC retention time was found to be 577 s.

In turn, `CC1(C(=O)NC2CCCC2)Cn2cnc(C(=O)NCc3cccc(F)c3)c2C(=O)N1C1CC1` (centres undefined) gave an RP-LC retention time of 753 s. To `CS(=O)(=O)N(C1CCOCC1)C1CN(C(=O)Nc2ccccc2)C1` belongs 666 s; to `COCCn1cc(CCNC(=O)Nc2cccc(F)c2C)c2cccnc21`, 774 s. Under `Cc1sc(NC(=O)CCc2ccccc2)nc1-c1ccc2c(c1)NC(=O)C(C)O2` (centres undefined) stands 687 s; under `COC(=O)Nc1ccc(CC(=O)NCC(F)(F)F)cc1`, 639 s; under `COc1ccc(N2CC(c3noc(-c4cc(Cl)ccc4F)n3)CC2=O)cc1` (centres undefined), 1050 s.

As to `Cn1c(NC(=O)c2ccc(N3C(=O)CCC3=O)cc2)cc(=O)n(C)c1=O`, the RP-LC retention time amounted to 565 s. To `COC(=O)C1=CN(C2CC2)c2cc(N3CCc4ccccc4C3)c(F)cc2S1(=O)=O` belongs 977 s; to `CC(C)CNC(=O)CCc1nc2ccccc2n(CC(=O)NCCCc2ccccc2)c1=O`, 834 s. Consider `O=C(c1ccc(Br)o1)N1CCC(c2nnc(-c3ccco3)s2)CC1`, for which the RP-LC retention time was found to be 765 s. Under `COc1ccc(CCNc2nc(N3CCc4cc(OC)c(OC)cc4C3)c3cc(OC)c(OC)cc3n2)cc1OC` stands 833 s. In turn, `CCCn1c(=O)sc2cc(S(=O)(=O)N3CCC(C(=O)Nc4cccc(F)c4)CC3)ccc21` displayed an RP-LC retention time of 983 s.
